Values joined by “and” are separate entries in the source; they are usually repeats but may differ in a detail not shown here. Equal values may be shown once.
Tests used:
[1] = test system: pRII (PKA-II signaling activity) in mouse sensory neurons; type: cell-based
[2] = test system: pRII (PKA-II signaling activity) in rat sensory neurons; type: cell-based; details: for IC50: read-out: IC50 on pRII signals induced by 5-HT

Row | Molecule | pRII response in Nav1.7-/- versus Nav1.7+/+ cultures [1] | Neuron subgroups in which pRII intensity is increased [2] | Effect on 5-HT-induced pRII intensity [2] | other results
1 | 8-bromoadenosine-3′,5′-cyclic monophosphorothioate, Sp-isomer, and acetoxymethyl ester [Sp-8-Br-cAMPS-AM] | the same |  |  | 
2 | NCCc1c[nH]c2ccc(O)cc12 [5-HT] | the maximum amplitude but not the EC50 of the pRII response to 5-HT was reduced | predominately activated RIIβ(+) neurons |  | Numbers of RIIβ(+) neurons responsive to 5-HT [1]: 27.8 ± 1.3% and 19.1 ± 1.2%; Smaller sized sensory neurons with increased pRII signals [1]: 17% and 21%
3 | C=C[C@@]1(C)CC(=O)[C@]2(O)[C@@]3(C)[C@@H](O)CCC(C)(C)[C@@H]3[C@H](O)[C@H](OC(C)=O)[C@@]2(C)O1 [Fsk, forskolin] | the same | all rat sensory neurons, both RIIβ(-) and RIIβ(+) neurons |  | Population of Fsk-responding cells [1]: 28% and 23%
4 | Cn1cc(C(=O)OCC2CCN(CCNS(C)(=O)=O)CC2)c2ccccc21 [GR113808] |  |  | blocked | IC50 [2]: 8.6 nM
5 | CCCCC[C@H](O)/C=C/[C@@H]1[C@H]2C/C(=C/CCCC(=O)O)O[C@H]2C[C@H]1O [PGI2, prostacyclin] | the same | predominately activated RIIβ(+) neurons |  | 
6 | O=C1CC[C@@]2(O)[C@H]3Cc4ccc(O)c5c4[C@@]2(CCN3CC2CC2)[C@H]1O5 [naltrexone] |  |  | no effect | Effect on basal pRII intensity [2]: no effect; Effect on baseline amount of pRII [1]: Neither fentanyl nor naltrexone altered
7 | CTOP |  |  | did not affect | Effect on DAMGO inhibition of the 5-HT-induced increase in pRII [2]: partially; Effect on basal pRII intensity [2]: did not affect
8 | DAMGO |  |  |  | IC50 [2]: 321 nM; Inhibition of 5-HT-induced pRII: Nav1.7-/- versus wild-type neurons [1]: The IC50 to inhibit 5-HT-induced pRII was similar, but the maximum response was greater
